Series [1] has as its system E. coli MG1655 FabI mutants. The experiment in a line: MIC of fabimycin-resistant mutants. Type of series: cell-based. The conditions noted are these: Escherichia coli. The protocol:
(§1) II. Materials and Methods for Biological Experiments
(§2) S. aureus ATCC 29213 and E. coli MG1655 were obtained from the American Type Culture Collection (ATCC). E. coli BW25113 and E. coli JW5503 were obtained from the Keio Collection. AR-bank strains were obtained from the Centers for Disease Control and Prevention and FDA Antibiotic Resistance Isolate Bank.
(§3) Antimicrobial susceptibility tests
(§4) Susceptibility testing was performed in biological triplicate, unless noted otherwise, using the micro-dilution broth method as outlined by the Clinical and Laboratory Standards Institute. Bacteria were cultured with cation-adjusted Mueller Hinton broth (Sigma Aldrich, catalogue number: 90922). […]
(§5) Error bars represent the standard error of the mean of three biological replicates. All compounds evaluated in biological assays were ≥95% pure.
(§6) Selection of resistant mutants
(§7) Resistant mutants were generated using the large inoculum method. Briefly, S. aureus 29213, E. coli MG1655, and A. baumannii 19606 (~1 x 1010 CFUs) was plated on 100-mm plates (E. coli and A. baumannii) or 150-mm plates (S. aureus) of MH agar containing either 128, 64, or 32 µg/mL fabimycin (for gram-negatives) or 0.125, 0.062, and 0.031 µg/mL fabimycin (for S. aureus). Plates were incubated at 37 °C for 48 h and counted for the presence of colony forming units.
(§8) Glycerol stocks of selected colonies were made, and resistant colonies confirmed by growing on agar plates containing the same concentration of fabimycin that they were generated at.
(§9) Sequencing of bacterial fabI
(§10) The FabI gene was amplified by PCR. Fabimycin-resistant colonies were picked and diluted in 100 µL sterile, nuclease-free H2O. PCR reactions were then set up by combining 14 µL H2O, 1 µL 20 µM primer mix, 10 µL template (bacteria solution in H2O), and 25 µL MiFi Mix (Bioline). The reaction was performed on a C1000 Thermal Cycler (Bio-Rad) under the following conditions for 35 cycles: initial denature: 95 °C for 3 min; denature 95 °C for 15 s; anneal: 57 °C for 15 s; extend 72 °C for 30 s; final extend: 72 °C for 3 min. A 10 µL portion of PCR reaction mixture was analyzed by agarose gel electrophoresis to confirm the single 1.4-kilobase pair product. PCR products were purified using a GeneJET PCR Purification Kit (Thermo Fischer Scientific). PCR amplicons were submitted to the Core DNA Sequencing Facility at the University of Illinois at Urbana-Champaign for Sanger sequencing with overlapping internal primers. All primers were obtained from Integrated DNA Technologies.
(§11) Primers for sequencing of fabI gene in select pathogens: […]
(§12) Organism Sequence Reference
(§13) Forward 5’-GGG-GCC-AGC-GTT-TCT-TTT-TC-3‘ Parker, 20203
(§14) Reverse 5’-AAA-CAT-GGA-GAC-GGT-GCT-GG
(§15) Forward 5’-GTG-AGA-TCG-GCA-TGA-CAC-AA-3’ Lin, 20179
(§16) Reverse 5’-CTG-AAG-TCC-GCT-ACC-GTT-AT-3’
(§17) Compound stability in mammalian plasma
(§18) Candidate drugs were incubated with plasma and parent drug levels were monitored at various time points (generally t=0, 10, 20, 30, and 60 minutes) to determine the drug’s half-life in the presence of the chosen system. Each drug is tested in duplicate. Compounds were diluted from 10 mM DMSO stocks to 1 µM in a 100 mM pH 7.4 phosphate buffer and incubated at 37 °C with 0.5 mg/mL of human, rat, or mouse plasma (BioreclamationIVT, Baltimore, MD). Time points were collected at 0 min (after addition of drug), 15 min, 30 min, 60 min, and 120 min following quenching with an equal volume of acetonitrile. The supernatant was collected after centrifugation, and the sample analyzed by LC-MS where the percentage of compound remaining is plotted vs time to determine the drug’s half-life.
(§19) Compound plasma protein binding
(§20) Candidate drugs were incubated with plasma and parent drug levels are monitored after 4 hours to determine the drug’s free concentration in the presence of the plasma proteins. The standard assay involves equilibrium dialysis, in which compound is allowed to equilibrate between a protein-containing compartment from a protein-free compartment. Each

Series [2] relates to A. baumannii 19606 FabI mutants. The experiment in a line: MIC of fabimycin-resistant mutants. The format is cell-based. The note with it: Acinetobacter baumannii. The protocol:
as §1, §2, §3, §4, §5, §6, §7, §8, §9, §10, §11, §12, §13, §14, §15, §16, §17, §18, §19, §20

In series [3] the test system is A. baumannii AR-0088. Put plainly: MIC against infective strain of PK/thigh models. The format is cell-based. The conditions noted are these: Acinetobacter baumannii, AR0088; drug-resistant A. baumannii, infective strain of the PK study (AR-0088). The protocol:
as §1, §2, §3, §4, §5

The format of series [4] is in vitro ADME. On the procedure: as §13, §14, §15, §16, §17, §18, §19, §20

In brackets after ≈: the same amount, converted by molar mass. Where two headings read alike, the source gives them in different places.

A word on the MIC: it is the lowest concentration that inhibits growth of the organism. Consider `Cc1c(CN(C)C(=O)/C=C/c2cnc3c(c2)CC[C@H](N)C(=O)N3)oc2ccccc12` [fabimycin], for which the MIC in series [1] (MG1655, FabI mutation G148S, plated at 16x MIC (32 μg/mL), colonies 2/5, read-out: MIC of mutants) was not below 128 µg/mL; in series [1] (MG1655, read-out: MIC of mutants, FabI mutation G148A, plated at 8x MIC (16 μg/mL), colonies 3/5), 32 to 64 µg/mL; in series [1] (MG1655, read-out: MIC of mutants, FabI mutation G148A, plated at 16x MIC (32 μg/mL), colonies 3/5) it was 64 µg/mL; in series [1] (MG1655, read-out: MIC of mutants, FabI mutation G148S, plated at 8x MIC (16 μg/mL), colonies 1/5), 128 µg/mL; in series [1] (MG1655, read-out: MIC of mutants, FabI mutation M159T, plated at 8x MIC (16 μg/mL), colonies 1/5), 32 µg/mL; in series [2] (FabI mutation A118T, plated at 16x MIC (32 μg/mL), colonies 4/5, read-out: MIC of mutants), 64 to 128 µg/mL. Further, the MIC in series [2] (FabI mutation N160K, plated at 16x MIC (32 μg/mL), colonies 1/5, read-out: MIC of mutants) was 128 µg/mL; in series [2] (read-out: MIC of mutants, FabI WT, plated at 8x MIC (16 μg/mL), colonies 2/5), 8 to 16 µg/mL; in series [2] (read-out: MIC of mutants, FabI mutation A118T, plated at 32x MIC (64 μg/mL), colonies 4/5) it was 64 µg/mL; in series [2] (read-out: MIC of mutants, FabI mutation A118V, plated at 8x MIC (16 μg/mL), colonies 1/5), 128 µg/mL; in series [2] (read-out: MIC of mutants, FabI mutation F206L, plated at 8x MIC (16 μg/mL), colonies 1/5) it was 32 µg/mL; in series [2] (read-out: MIC of mutants, FabI mutation G151S, plated at 32x MIC (64 μg/mL), colonies 1/5), 64 µg/mL. In addition, the MIC in series [2] (read-out: MIC of mutants, FabI mutation M162T, plated at 8x MIC (16 μg/mL), colonies 1/5) was determined as 128 µg/mL; in series [3], 2 µg/mL (≈ 4.94 µM). In addition, the stability in plasma entry in series [4] (human) is recorded as “excellent stability”; in series [4] (mouse) it was “considerable instability”; in series [4] (rat) it was “excellent stability”.
